Measurements reported in ChEMBL document CHEMBL3880385, “2-Iminoisoindolinone derivatives as thrombin receptor antagonists” (2011).
Structures can show the parent of a compound that is named as a salt.

Assay: Antiproliferative activity against thrombin-induced […] smooth muscle cells isolated from Sprague-Dawley rat aorta after 2 days by MTT assay
Type: functional
Settings: VSMC, 48 h

SMILES | IC50
CCOc1cc2c(c(F)c1OCC)C(=N)N(CC(=O)c1cc(N3CCC(O)CC3)c(OC)c(C(C)(C)C)c1)C2 | 23 nM
CCOc1cc2c(c(F)c1OCC)C(=N)N(CC(=O)c1cc(N3CCNCC3)c(OC)c(C(C)(C)C)c1)C2 | 52 nM
CCOc1cc2c(c(F)c1OCC)C(=N)N(CC(=O)c1cc(N3CCN(CC#N)CC3)c(OC)c(C(C)(C)C)c1)C2 | 75 nM
CCOc1cc2c(c(F)c1OCC)C(=N)N(CC(=O)c1cc(N3CCN(CC(=O)O)CC3)c(OC)c(C(C)(C)C)c1)C2 | 150 nM
CCOc1cc2c(c(F)c1OCC)C(=N)N(CC(=O)c1cc(N3CCOCC3)c(OC)c(C(C)(C)C)c1)C2 [ATOPAXAR HYDROBROMIDE] | 32 nM
